≈ marks a conversion by molar mass, not a printed value.
What was measured:
[1] = Solubility measurement in aqueous Tris-HCl buffer by UV spectrophotometry; assay type: physicochemical; details: aqueous 10 mmol Tris-HCl buffer (pH 7.0)
Source text: The polyene region of nystatin is extremely non-polar, which is presumed to promote hydrophobic interactions with sterols within the fungal cell membrane, and orients the polyol component of the molecule toward the internal aqueous channel. However, this low polarity also leads to significant difficulties in administration during human therapy. To investigate the effect of the additional N-acetyl-glucosamine moiety, the present inventors tested the solubility of the purified NPP as well as the nystatin A1 as a reference in an aqueous buffer solution of 10 mmol Tris-HCl (pH 7.0) using spectrophotometric methods.
Particularly, stock solutions of nystatin A1 (Sigma, N6261) standard (1.2 mg/ml) and the purified NPP (12 mg/ml) were prepared in methanol. A 100 μl portion of each stock was freeze-dried under vacuum for 24 h. Either 50 μl (nystatin A1) or 2 μl (NPP) of aqueous 10 mmol Tris-HCl buffer (pH 7.0) was added to the dry polyenes, and the solution was saturated by extensive (>15 min) vortexing. After centrifugation, polyene concentrations in the solution were determined by measuring UV absorbance spectra on SHIMADZU UV-1601 UV/Vis spectrophotometer after appropriate dilution. Specifically, the characteristic tetraene UV peak at 306 nm was used for quantification with experimentally determined extinction coefficients (J. Med. Chem. 49:2431-2439, 2006).

[2] = system: Candida albicans ATCC 10231; assay: Antifungal activity analysis (growth inhibition in microtiter plates); assay type: cell-based; details: Table 5
Description: The test organism used for the polyene macrolide bioactivity assays was Candida albicans ATCC 10231, which was grown in 120 μl of YM medium without NaCl (with an inoculum of 1,000 CFU per well) and 30 μl of diluted polyene macrolide samples. The antibiotics were diluted in methanol in series to ensure that concentrations resulting in no inhibition to complete inhibition of the growth of the test organism were used. The test organism cultures with diluted antibiotics were then incubated in 96-well microtiter plates at 30° C. without shaking. After 12, 14, and 16 h, growth was measured based on the optical density at 492 nm using a TECAN Infinite F50 microtiter plate reader. The optical density was plotted against the antibiotic concentration, and the MIC at which 50% of isolates are inhibited (MIC50) was estimated from the regression curve at 50% growth inhibition.

[3] = system: erythrocytes in defibrinated horse blood; assay: In vitro measurement of hemolytic activity; assay type: cell-based; details: 37° C., 30 min
Description: The hemolytic assay for the polyene macrolides was performed by monitoring the ability of the macrolides to cause lysis of erythrocytes in defibrinated horse blood (Gene. 111:61-68, 1992). Samples (0.1 ml) with different polyene macrolide concentrations (10 to 500 μg/ml in DMSO) were prepared from stock solutions of the purified polyenes (5 mg/ml in DMSO). The diluted samples were mixed with 0.9 ml horse blood-phosphate-buffered saline (PBS), which consisted of PBS buffer containing 2.5% defibrinated horse blood (KisanBiotech, Korea), and incubated in a water bath at 37° C. Samples were collected at 30 min, centrifuged at 5,000 rpm for 5 min, and the OD540 was measured. One hundred percent hemolysis was defined as the OD540 value obtained from a suspension of 2.5% horse blood in distilled water, and 0.9 ml horse blood-PBS with the addition of 0.1 ml DMSO was used as a blank. Each experiment was performed in triplicate, and samples containing nystatin were used as standards.

C[C@@H]1[C@H](O)[C@@H](C)/C=C/C=C/CC/C=C/C=C/C=C/C=C/C(O[C@H]2O[C@H](C)[C@@H](O)[C@H](N)[C@@H]2O)CC2O[C@](O)(CC(O)C(O)CCC(O)CC(O)CC(O)CC(=O)O[C@H]1C)CC(O)C2C(=O)O (some centres unmarked) [nystatin, nystatin A1]
solubility ([1]; Table 5): 0.11 ± 0.03 mg/mL (≈ 119 µM)
solubility [1]: 0.11 mg/mL (≈ 119 µM)
Antifungal activity (IC50, μg/ml) [2]: 0.43 ± 0.02 µg/mL
HC50 ([3]; 2.5% defibrinated horse blood in PBS): 33 µg/mL
Hemolytic activity (HC50, μg/ml) ([3]; Table 5, horse blood): 33 ± 0.54 µg/mL

Reference: patent publication US9605015B2, “Polyene compound, method for preparing the same, and antifungal drug comprising novel polyene compound as active ingredient” (INHA-INDUSTRY PARTNERSHIP INSTITUTE, priority 2011, dated 2017)
